Assays:
concanavalin A (Con A) = concanavalin A (Con A) (Canavalia ensiformis, UniProt P02866); details: higher affinity than glucose; cited from earlier work
non-diabetic SD rats = assay type: in vivo, Sprague Dawley (SD) rats
Experimental: FIG. 3: (a) Plot of (♦) serum insulin and (◯) blood glucose levels following subcutaneous injection in non-diabetic SD rats at time 0 with TSB-C4-AEBM-2-insulin/native Con A (an α-methyl mannose-responsive material). An i.p. injection of α-methyl mannose was administered at 120 min as indicated by the *.
0.300 ml of the formulation prepared in Example 1 was injected subcutaneously into each of three normal male Sprague Dawley (SD) rats (Charles River Laboratories, Wilmington, Mass.) weighing between 400 and 500 g. Prior to formulation injection, blood glucose values were measured via tail vein bleeding using a Precision Xtra glucometer (Abbott Laboratories, Alameda, Calif.) and approximately 100 ul of serum was obtained via tail vein bleeding to assay for background insulin levels. Food was removed from the rat cages during the duration of the study. Serum and blood glucose values were obtained at 30 min, 60 min, 90 min, and 120 min post-injection. At 120 min after the injection, an intraperitoneal injection of a 25% w/v α-methyl-mannose solution was injected to provide a 2 g/kg dose after which serum and blood glucose values were obtained at 135 min, 150 min, 180 min, 210 min, 240 min, and 300 min.

Row | Compound | affinity for Con A relative to endogenous glucose (concanavalin A (Con A)) | conjugate release at physiologically normal blood glucose levels (background release) (non-diabetic SD rats; rat, in vivo, sc) | response to exogenous α-methyl-mannose (non-diabetic SD rats; summary statement on Examples 1-2)
1 | COC1O[C@H](CO)[C@@H](O)[C@H](O)[C@@H]1O (stereo partly drawn) [α-methyl-mannose] | about 40 fold | – | –
2 | exemplary conjugate with two AEBM affinity ligands: Conjugate with TSB-C4 as the scaffold, AEBM as the affinity ligand, insulin (conjugated at Phe-B1) as the drug | – | very little background release | significant response

— patent US8846103B2, “Exogenously triggered controlled release materials and uses thereof” (SmartCells, Inc., priority 2009, dated 2014)
